Measured values published in US11753445B2, “Therapeutic peptides” (COHBAR, INC., priority 2016, dated 2023).
Where “and” joins values, the source holds several entries; their conditions need not be identical. Equal values may be shown once.

Tests used:
3T3-L1 Adipocytes [1] = test: Free fatty acid levels in cultured mouse 3T3-L1 adipocytes, isoproterenol stimulated (Example 2); format: cell-based; details: test peptides 25 μM; isoproterenol 1 nM
How it was run: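 Release of free fatty acids, read at 540 nm, was stimulated with 1 nM isoproterenol for 3 h in mouse 3T3-L1 adipocytes (12–17 days of differentiation). Cells were pre-exposed to 25 μM peptide for 18–20 h plus 1 h, with peptide kept in during stimulation. Values are background-subtracted and normalised to isoproterenol alone.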

3T3-L1 Adipocytes [2] = test: Free fatty acid levels in cultured mouse 3T3-L1 adipocytes, forskolin stimulated (Example 3); format: cell-based; details: test peptides 25 μM; forskolin 1 μM
Experimental: Mouse 3T3-L1 cells were seeded at 1,000-20,000 cells per well on 96-well, 48-well, or 24-well plates in Pre-adipocyte Medium (Zen-Bio, Durham, N.C.) and grown to confluence at 37° C. in a humidified atmosphere of 5% CO2/95% air. Two days after confluence, cells were placed in Adipocyte Differentiation Medium (Zen-Bio, Durham, N.C.) and cultured for three additional days at 37° C. in a humidified atmosphere of 5% CO2/95% air. The culture media was then replaced with Adipocyte Maintenance Medium (Zen-Bio) and the cells were maintained for an additional 9-14 days at 37° C. in a humidified atmosphere of 5% CO2/95% air with partial medium replacement every other day. Following 12-17 days of differentiation, test peptides were added at a final concentration of 25 μM and incubated for 18-20 hours in Adipocyte Maintenance Medium at 37° C. in a humidified atmosphere of 5% CO2/95%. After 18-20 hours, the media was exchanged with fresh Adipocyte Maintenance Medium containing test peptides and incubated for 1 h at 37° C. in a humidified atmosphere of 5% CO2/95%. After 1 h media was exchanged with Assay Buffer (Zen-Bio) containing forskolin (1 μM) (added to all samples except untreated controls) and test peptides. Cells were incubated for a further 3 hours at 37° C. in a humidified atmosphere of 5% CO2/95%. Free fatty acid concentrations in the media were determined using a Free Fatty Acid Assay Kit (Zen-Bio) according to the manufacturer's instructions using a plate reader (540 nm). Absorbance values were corrected for untreated background and expressed relative to forskolin treated cells. Treatment with forskolin (1 μM) alone was used as the free fatty acid level stimulatory control. The relative standard deviation of the forskolin control was <10%. […] Free fatty acid levels for insulin (100 nM) treatment were <9% of the forskolin control value.

Human Primary Adipocytes [3] = test: Free fatty acid levels in cultured human primary adipocytes, isoproterenol stimulated (Example 4); format: cell-based; details: test peptides 25 μM; isoproterenol 1 nM
Experimental: Human primary adipocytes were seeded at 5,000-100,000 cells per well on 96-well, 48-well, or 24-well plates in Pre-adipocyte Medium (Zen-Bio, Durham, N.C.) and grown to confluence at 37° C. in a humidified atmosphere of 5% CO2/95% air. Two days after confluence, cells were placed in Adipocyte Differentiation Medium (Zen-Bio, Durham, N.C.) and cultured for three additional days at 37° C. in a humidified atmosphere of 5% CO2/95% air. The culture media was then replaced with Adipocyte Maintenance Medium (Zen-Bio) and the cells were maintained for an additional 11-21 days at 37° C. in a humidified atmosphere of 5% CO2/95% air with partial medium replacement every other day. Following 14-24 days of differentiation, test peptides were added at a final concentration of 25 μM and incubated for 18-20 hours in Adipocyte Maintenance Medium at 37° C. in a humidified atmosphere of 5% CO2/95%. After 18-20 hours, the media was exchanged with fresh Adipocyte Maintenance Medium containing test peptides and incubated for 1 h at 37° C. in a humidified atmosphere of 5% CO2/95%. After 1 h media was exchanged with Assay Buffer (Zen-Bio) containing isoproterenol (1 nM) (added to all samples except untreated controls) and test peptides. Cells were incubated for a further 3 hours at 37° C. in a humidified atmosphere of 5% CO2/95%. Free fatty acid concentrations in the media were determined using a Free Fatty Acid Assay Kit (Zen-Bio) according to the manufacturer's instructions using a plate reader (540 nm). Absorbance values were corrected for untreated background and expressed relative to isoproterenol treated cells. Treatment with isoproterenol (1 nM) alone was used as the free fatty acid level stimulatory control. The relative standard deviation of the isoproterenol control was <14%. […] Free fatty acid levels for insulin (100 nM) treatment were <5% of the isoproterenol control value.

Human Primary Adipocytes [4] = test: Free fatty acid levels in cultured human primary adipocytes, forskolin stimulated (Example 5); format: cell-based; details: test peptides 25 μM; forskolin 1 μM
How it was run: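 Differentiated human primary adipocytes (14–24 days) were exposed to peptides at 25 μM for 18–20 h and 1 h, then stimulated with 1 μM forskolin plus peptide for 3 h at 37 °C. Medium free fatty acids were measured colorimetrically (540 nm), background-corrected and expressed relative to forskolin-only cells.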

[5] = Stability in mouse plasma, peptides 100 uM (Example 14); format: in vitro ADME; details: mouse plasma 37° C., peptide 100 uM; for remaining at 0.25 h, 100 uM / remaining at 0.5 h, 100 uM / remaining at 1 h, 100 uM / remaining at 2 h, 100 uM / remaining at 3 h, 100 uM: pooled mouse plasma; for remaining at 0.25 h, 100 uM: 15 min, read-out: % Remaining at Each Time Point: 15 min; for remaining at 0.5 h, 100 uM: 30 min, read-out: % Remaining at Each Time Point: 30 min; for remaining at 1 h, 100 uM: 60 min, read-out: % Remaining at Each Time Point: 60 min; for remaining at 2 h, 100 uM: 120 min, read-out: % Remaining at Each Time Point: 120 min; for remaining at 3 h, 100 uM: 180 min, read-out: % Remaining at Each Time Point: 180 min
Experimental: Peptides (100 uM) were incubated in pooled mouse plasma at 37° C. and samples were removed and immediately analyzed for the concentration of intact peptide by LC/MS/MS over the course of 3 hours. The percent of peptide remaining in plasma at each time point was calculated relative to the initial peak area (Table 12).

[6] = test system: Diet Induced Obese (DIO) mice; test: Body weight, blood glucose and fat mass in Diet Induced Obese mice, 10 days (Example 6); format: in vivo, Male C57BL/6 mice; details: male DIO mice; 10 days twice daily intraperitoneal 15 mg/kg; N = 8; mean
Experimental: Animals were randomized to treatment groups based on blood glucose levels and body weight. The peptides of the invention were administered to two groups of male DIG mice once or twice daily by subcutaneous or intraperitoneal injection at a dose of 15 mg/kg/dose for 10 days (N=8 animals per treatment group). An additional group of male DIG mice (n=8) received vehicle (water or saline) alone. Body weight, blood glucose levels and food intake were monitored. Body mass distribution (fat vs lean) was determined by quantitative whole body NMR prior to dosing and at the end of dosing.

[7] = Stability in mouse plasma, peptides 10 uM (Example 15); format: in vitro ADME; details: mouse plasma 37° C., peptide 10 uM
Experimental: Peptides (10 uM) were incubated in pooled mouse plasma at 37° C. and samples were removed and immediately analyzed for the concentration of intact peptide by LC/MS/MS over the course of 3 hours. The percent of peptide remaining in plasma at each time point was calculated relative to the initial peak area (Table 13).

Substance | Free Fatty Acid Levels in 3T3-L1 Adipocytes Expressed as a Percent of Isoproterenol Control: Percent of Control Value (3T3-L1 Adipocytes [1]) | Free Fatty Acid Levels in 3T3-L1 Adipocytes Expressed as a Percent of Forskolin Control: Percent of Control Value (3T3-L1 Adipocytes [2]) [%] | Free Fatty Acid Levels in Human Primary Adipocytes Expressed as a Percent of Isoproterenol Control: Percent of Control Value (Human Primary Adipocytes [3]) [%] | Free Fatty Acid Levels in Human Primary Adipocytes Expressed as a Percent of Forskolin Control: Percent of Control Value (Human Primary Adipocytes [4]) [%] | % Remaining at Each Time Point: 0 min [5] [%] | remaining at 0.25 h, 100 uM [5] [%] | remaining at 0.5 h, 100 uM [5] [%] | remaining at 1 h, 100 uM [5] [%] | remaining at 2 h, 100 uM [5] [%] | remaining at 3 h, 100 uM [5] [%] | Difference from Vehicle Control: Decrease from Baseline in Blood Glucose [6] [mg/dL] | Difference from Vehicle Control: Decrease from Baseline in Body Weight (%) [6] [%] | Difference from Vehicle Control: Decrease from Baseline in Fat Mass [6] [g] | % Remaining at Each Time Point: 0 min ([7]; 0 min) [%] | remaining at 0.25 h, 10 uM ([7]; pooled mouse plasma, 15 min, read-out: % Remaining at Each Time Point: 15 min) [%] | remaining at 0.5 h, 10 uM ([7]; pooled mouse plasma, 30 min, read-out: % Remaining at Each Time Point: 30 min) [%] | remaining at 1 h, 10 uM ([7]; pooled mouse plasma, 60 min, read-out: % Remaining at Each Time Point: 60 min) [%] | remaining at 2 h, 10 uM ([7]; pooled mouse plasma, 120 min, read-out: % Remaining at Each Time Point: 120 min) [%] | remaining at 3 h, 10 uM ([7]; pooled mouse plasma, 180 min, read-out: % Remaining at Each Time Point: 180 min) [%]
Ac-RWQEMGYIFYPRKLR-NH2 [compound 52] | 85.6% and 99.5% | 88.0 | 126 | 107 | – | – | – | – | – | – | – | – | – | – | – | – | – | – | –
H-MRWQEMGYIFYPRK-OH [compound 46] | 43.1% | 66.8 | 71.6 | 73.9 | 100 | 28.1 | 26.4 | 31.4 | 12.4 | 12.6 | – | – | – | – | – | – | – | – | –
H-MRWQEMGYIFYPR-OH [compound 47] | 24.5% | 45.3 | 60.5 | 89.9 | 100 | 56.7 | 49 | 38.9 | 23.8 | 18.3 | – | – | – | – | – | – | – | – | –
H-MRWQEMQYIFYPR-OH [compound 209] | 30.1% | 33.3 | 66.8 | 90.1 | 100 | 47.5 | 38.9 | 38 | 36.3 | 38.3 | – | – | – | – | – | – | – | – | –
H-MRAQEMGYIFYPRKLR-OH [compound 8] | – | – | 22.2 | 107 | 100 | 13.2 | 11.2 | 10.1 | 11.7 | 9.81 | -20.0 | −0.24 | -0.20 | – | – | – | – | – | –
H-MRWQEMGYIFYPRKL-OH [compound 45] | 37.9% | – | 22.2 | 125 | – | – | – | – | – | – | 6.00 | −2.01 | -0.69 | 100 | 66.5 | 33 | 7.31 | 0 | 0
H-WQEMGYIFYPRKLR-OH [compound 39] | 84.3% | 114 | 22.2 | 80.8 | 100 | 39.5 | 38.8 | 54.9 | 24 | 16.3 | – | – | – | – | – | – | – | – | –
H-QEMGYIFYPRKLR-OH [compound 40] | 83.1% | 96.1 | 122 | 107 | – | – | – | – | – | – | – | – | – | – | – | – | – | – | –
